Results on seven molecules are retold here after ChEMBL document CHEMBL1122027, “N-Aralkyl substitution of 2-amino-5,6- and -6,7-dihydroxy-1,2,3,4-tetrahydronaphthalenes. 2. Derivatives of a hypotensive-positive inotropic agent” (1982).

The species named for test [1] is Canis familiaris. Kind of test: Inotropic selectivity was assessed by normalizing changes in heart rate to the 50% levels in mongrel dogs. The class given is functional, Canis lupus familiaris.
The species entered for test [2] is Canis familiaris. Kind of test: Cardioselectivity was estimated by normalizing changes in diastolic blood pressure to the 100% levels of contractile force in mongrel dogs. The class given is functional, Canis lupus familiaris, Artery.
Test [3] concerns Canis familiaris. Kind of test: In vivo dose causing a 50% increase in right ventricular contractile force in mongrel dogs. The class given is functional, Canis lupus familiaris, Heart right ventricle.
For test [4], the species on record is Canis familiaris. Description: Cardioselectivity was estimated by normalizing changes in diastolic blood pressure to the 50% levels of contractile force in mongrel dogs. The class given is functional, Canis lupus familiaris, Artery.
Test [5] has as its system Canis familiaris. Description: In vivo dose causing a 100% increase in right ventricular contractile force in mongrel dogs. The test is classed as functional, Canis lupus familiaris, Heart right ventricle.
Test [6] is filed under the species Canis familiaris. Description: Inotropic selectivity was assessed by normalizing changes in heart rate to the 100% levels in mongrel dogs. The test is classed as functional, Canis lupus familiaris.

As to `CC(Cc1ccc(O)c(O)c1)NC1CCc2cc(O)c(O)cc2C1` (centres undefined), the “Delta HR” value is on record as -5 beats min-1 in the test filed under Canis familiaris [1] and 4 beats min-1 in the test filed under Canis familiaris [6]. For the same molecule, the Delta blood pressure in the test filed under Canis familiaris [2] is reported as -30 mmHg; in the test filed under Canis familiaris [4], -39 mmHg. The values for the Inotropic potency in the test on Canis familiaris [3] and with Canis familiaris [5] were 11.4 nM/kg and 27 nM/kg, respectively.

Take `Oc1cc2c(cc1O)CC(NC1CCc3c(ccc(O)c3O)C1)CC2` (centres undefined): the “Delta HR” value in the test listed under Canis familiaris [1] is reported as 24 beats min-1; in the test filed under Canis familiaris [6], 31 beats min-1. Moreover, the Delta blood pressure in the test filed under Canis familiaris [2] is listed as -55 mmHg; in the test filed under Canis familiaris [4], -61 mmHg. Besides, the values for the Inotropic potency in the test on Canis familiaris [3] and in the test on Canis familiaris [5] were 210 nM/kg and 590 nM/kg, respectively.

Consider `CC(Cc1ccc(O)c(O)c1)NC1CCc2cc(O)ccc2C1` (centres undefined), for which the “Delta HR” value in the test filed under Canis familiaris [1] was found to be 30 beats min-1; in the test listed under Canis familiaris [6], 49 beats min-1. In addition, the Delta blood pressure is -66 mmHg in the test filed under Canis familiaris [2] and -46 mmHg in the test filed under Canis familiaris [4]. Further, the Inotropic potency with Canis familiaris [3] was 25 nM/kg; in the test with Canis familiaris [5], 85 nM/kg.

Consider `CC(Cc1ccc(O)c(O)c1)NCCc1ccc(O)c(O)c1` (centres undefined), for which the figures for the “Delta HR” value in the test listed under Canis familiaris [1] and in the test filed under Canis familiaris [6] were 26 beats min-1 and 39 beats min-1, respectively. Further, the Delta blood pressure was -34 mmHg in the test listed under Canis familiaris [2] and -19 mmHg in the test filed under Canis familiaris [4]. Further, the Inotropic potency in the test on Canis familiaris [3] worked out at 4 nM/kg; with Canis familiaris [5] it was 13 nM/kg.

As for `Oc1cc2c(cc1O)CC(NC1CCc3cc(O)c(O)cc3C1)CC2` (centres undefined), the “Delta HR” value amounted to 31 beats min-1 in the test filed under Canis familiaris [1] and 62 beats min-1 in the test listed under Canis familiaris [6]. Also, the Delta blood pressure in the test filed under Canis familiaris [2] is recorded as 84 mmHg; in the test listed under Canis familiaris [4] it was -78 mmHg. Also, the Inotropic potency was found to be 961 nM/kg in the test with Canis familiaris [3] and 2650 nM/kg with Canis familiaris [5].

Take `CC(Cc1ccc(O)cc1)NC1CCc2cc(O)c(O)cc2C1` (centres undefined): the “Delta HR” value in the test listed under Canis familiaris [1] is 23 beats min-1. Also, the Inotropic potency in the test on Canis familiaris [3] was determined as 680 nM/kg. For the same molecule, in the test listed under Canis familiaris [4], the Delta blood pressure is given as -25 mmHg.

For `COc1ccc(CC(C)NCCc2ccc(O)c(O)c2)cc1OC` (centres undefined), the figures for the “Delta HR” value in the test filed under Canis familiaris [1] and in the test filed under Canis familiaris [6] were 10 beats min-1 and 17 beats min-1, respectively. The Delta blood pressure in the test filed under Canis familiaris [2] was -31 mmHg; in the test filed under Canis familiaris [4] it was -24 mmHg. Besides, the results for the Inotropic potency with Canis familiaris [3] and in the test with Canis familiaris [5] were 490 nM/kg and 1100 nM/kg, respectively.
